# In patent publication US9453014B2, “Cyclic amide derivatives as inhibitors of 11-β-hydroxysteroid dehydrogenase and uses thereof” (CONNEXIOS LIFE SCIENCES PVT. LTD., priority 2011, dated 2016):
# pIC50: −log10 of the molar value.
# Molecular target: T1, human full length HSD11 β 1 (Homo sapiens, UniProt P28845)
# T1 construct: transient expression of human full length HSD11 β 1 expression vector; host or cells: CHO cells (transient transfection)
# Experiment: In Vitro HSD11β1 Inhibition Assay
# Type: cell-based
# Settings: CHO cells transiently expressing human HSD11β1; 200 nM cortisone+500 uM NADPH overnight; cortisone to cortisol by LC/MS-MS; read-out: 11βHSD1 (IC50)
# Method in brief: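 CHO cells transiently transfected with human full-length HSD11β1 were re-seeded after 24 h and, 24 h later, incubated overnight with 200 nM cortisone plus 500 uM NADPH and inhibitor. Cortisone-to-cortisol conversion was measured by LC/MS-MS. IC50 from an 8-point log concentration–inhibition curve.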
# T1 sequence (P28845 whole entry): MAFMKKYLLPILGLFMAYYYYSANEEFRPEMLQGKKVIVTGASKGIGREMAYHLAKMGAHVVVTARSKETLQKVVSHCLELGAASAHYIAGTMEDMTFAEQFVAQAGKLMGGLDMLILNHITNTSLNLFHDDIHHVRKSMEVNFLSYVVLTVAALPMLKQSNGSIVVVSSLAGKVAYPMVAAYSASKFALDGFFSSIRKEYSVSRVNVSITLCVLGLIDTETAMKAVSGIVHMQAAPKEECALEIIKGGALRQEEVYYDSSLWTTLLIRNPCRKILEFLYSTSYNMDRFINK
row,pIC50,SMILES
1,< 6.60,CO/N=C1/CCN(C(=O)CCc2c[nH]c3ccccc23)C2CCCCC12 (stereo not shown) [Compound 36]
2,< 6.60,"CC1CC2CCCCC2N(C(=O)CCc2c[nH]c3ccccc23)C1 (stereo not shown) [Compound 37, 3-(1H-indol-3-yl)-1-(3-methyloctahydroquinolin-1(2H)-yl)propan-1-one]"
3,6.70 to 6.82,"CC1CCC2CCCCC2N1C(=O)CCc1c[nH]c2ccccc12 (stereo not shown) [Compound 38, 3-(1H-indol-3-yl)-1-(2-methyloctahydroquinolin-1(2H)-yl)propan-1-one]"
4,< 6.60,"O=C(CCc1c[nH]c2cc(F)ccc12)N1CCCC2CCCCC21 (stereo not shown) [Compound 39, 3-(6-fluoro-1H-indol-3-yl)-1-(octahydroquinolin-1(2H)-yl)propan-1-one]"
5,< 6.60,"CC1CCC2CCCCC2N1C(=O)CCc1c[nH]c2cc(F)ccc12 (stereo not shown) [Compound 40, 3-(6-fluoro-1H-indol-3-yl)-1-(2-methyloctahydroquinolin-1(2H)-yl)propan-1-one]"
6,6.82 to 7.00,"O=C(CCc1c[nH]c2ccccc12)N1CCC2CCCCC21 (stereo not shown) [Compound 41, 3-(1H-indol-3-yl)-1-(octahydro-1H-Indol-1-yl)propan-1-one]"
7,< 6.60,"O=C(CCc1c[nH]c2ccccc12)N1CC2CCCCC2C1 (stereo not shown) [Compound 42, 3-(1H-indol-3-yl)-1-(octahydro-2H-isoindol-2-yl)propan-1-one]"
8,< 6.60,"O=C1CCN(C(=O)CCc2c[nH]c3cc(F)ccc23)C2CCCCC12 (stereo not shown) [Compound 43, 1-[3-(6-fluoro-1H-indol-3-yl)propanoyl]octahydroquinolin-4(1H)-one]"
9,> 7.00,"O=C(CCc1c[nH]c2cccc(F)c12)N1CCCC2CCCCC21 (stereo not shown) [Compound 44, 3-(4-fluoro-1H-indol-3-yl)-1-(octahydroquinolin-1(2H)-yl)propan-1-one]"
10,< 6.60,CC1CC2CCCCC2N1C(=O)CCc1c[nH]c2ccccc12 (stereo not shown) [Compound 45]
11,< 6.60,"O=C(O)Cn1cc(CCC(=O)N2CCCC3CCCCC32)c2ccccc21 (stereo not shown) [Compound 46, {3-[3-(octahydroquinolin-1(2H)-yl)-3-oxopropyl]-1H-indol-1-yl}acetic acid]"
12,> 7.00,"Cn1cc(CCC(=O)N2CCCC3CCCCC32)c2c(F)cccc21 (stereo not shown) [Compound 47, 3-(4-fluoro-1-methyl-1H-Indol-3-yl)-1-(octahydroquinolin-1(2H)-yl)propan-1-one]"
13,< 6.60,"O=C(CCc1c[nH]c2ccccc12)N1CCCC2=C1CCCC2 [Compound 48, 1-(3,4,5,6,7,8-hexahydroquinolin-1(2H)-yl)-3-(1H-indol-3-yl)propan-1-one]"
14,< 6.60,"COC(=O)C1CCN(C(=O)CCc2c[nH]c3ccccc23)C2CCCCC12 (stereo not shown) [Compound 49, methyl 1-[3-(1H-indol-3-yl)propanoyl]decahydroquinoline-4-carboxylate]"
15,< 6.60,"O=C(O)C1CCN(C(=O)CCc2c[nH]c3ccccc23)C2CCCCC12 (stereo not shown) [Compound 50, 1-[3-(1H-indol-3-yl)propanoyl]decahydroquinoline-4-carboxylic acid]"
16,< 6.60,"O=C(CCc1cn(S(=O)(=O)c2ccccc2)c2ccccc12)N1CCCC2CCCCC21 (stereo not shown) [Compound 51, 1-(octahydroquinolin-1(2H)-yl)-3-[1-(phenylsulfonyl)-1H-indol-3-yl]propan-1-one]"
17,< 6.60,"O=C(CCc1c[nH]c2ccccc12)N1CCCCC2CCCCC21 (stereo not shown) [Compound 54, 1-(decahydro-1H-1-benzazepin-1-yl)-3-(1H-indol-3-yl)propan-1-one]"
18,< 6.60,"O=C(CS(=O)(=O)c1c[nH]c2ccccc12)N1CCCC2CCCCC21 (stereo not shown) [Compound 57, 2-(1H-indol-3-ylsulfonyl)-1-(octahydroquinolin-1(2H)-yl)ethanone]"
19,6.70 to 6.82,"Cn1cc(C(C)(C)CC(=O)N2CCCC3(C)CCCCC23)c2ccccc21 (stereo not shown) [Compound 59, 3-methyl-3-(1-methyl-1H-indol-3-yl)-1-(4a-methyloctahydroquinolin-1 (2H)-yl)butan-1-one]"
20,> 7.00,"Cc1cccc2c1c(CCC(=O)N1CCOC3CCCCC31)cn2C (stereo not shown) [Compound 60, 3-(1,4-dimethyl-1H-indol-3-yl)-1-(octahydro-4H-1,4-benzoxazin-4-yl)propan-1-one]"
21,< 6.60,"O=C(CCc1c[nH]c2ccccc12)N1CCO[C@@H]2CCCCC21 (stereo partly drawn) [Compound 61, 3-(1H-indol-3-yl)-1-[(trans-4a,8a)-octahydro-4H-1,4-benzoxazin-4-yl]propan-1-one]"
22,6.70 to 6.82,"Cc1cccc2[nH]cc(CCC(=O)N3CCOC4CCCCC43)c12 (stereo not shown) [Compound 64, 3-(4-methyl-1H-indol-3-yl)-1-(octahydro-4H-1,4-benzoxazin-4-yl)propan-1-one]"

row,pIC50,SMILES
1,< 6.60,"O=C(CCc1c[nH]c2ccccc12)N1CCOC2CCCCC21 (stereo not shown) [Compound 67, 3-(1H-indol-3-yl)-1-(octahydro-4H-1,4-benzoxazin-4-yl)propan-1-one]"
2,< 6.60,"Cc1cccc2[nH]cc(CCC(=O)N3CC(C)(C)OC4CCCCC43)c12 (stereo not shown) [Compound 68, 1-(2,2-dimethyloctahydro-4H-1,4-benzoxazin-4-yl)-3-(4-methyl-1H-indol-3-yl)propan-1-one]"
3,< 6.60,"Cc1cccc2c1c(CCC(=O)N1CC(C)OC3CCCCC31)cn2C (stereo not shown) [Compound 69, 3-(1,4-dimethyl-1H-indol-3-yl)-1-(2-methyloctahydro-4H-1,4-benzoxazin-4-yl)propan-1-one]"
4,< 6.60,"Cc1cccc2c1c(CCC(=O)N1CC(C)(C)OC3CCCCC31)cn2C (stereo not shown) [Compound 70, 3-(1,4-dimethyl-1H-indol-3-yl)-1-(2,2-dimethyloctahydro-4H-1,4-benzoxazin-4-yl)propan-1-one]"
5,6.70 to 6.82,"Cn1cc(C(C)(C)CC(=O)N2CCOC3CCCCC32)c2ccccc21 (stereo not shown) [Compound 71, 3-methyl-3-(1-methyl-1H-indol-3-yl)-1-(octahydro-4H-1,4-benzoxazin-4-yl)butan-1-one]"
6,> 7.00,"O=C(CCc1c[nH]c2cccc(F)c12)N1CCOC2CCCCC21 (stereo not shown) [Compound 72, 3-(4-fluoro-1H-indol-3-yl)-1-(octahydro-4H-1,4-benzoxazin-4-yl)propan-1-one]"
7,< 6.60,"O=C(CSc1nc2ccccc2s1)N1CCCC2CCCCC21 (stereo not shown) [Compound 73, 2-(1,3-benzothiazol-2-ylsulfanyl)-1-(octahydroquinolin-1(2H)-yl)ethanone]"
8,< 6.60,"CC(CC(=O)N1CCC(CC(=O)O)C2CCCCC21)c1c[nH]c2cccc(C3CC3)c12 (stereo not shown) [Compound 189, (1-[3-(4-cyclopropyl-1H-indol-3-yl)butanoyl]decahydroquinolin-4-yl)acetic acid]"
9,> 7.00,"CC(CC(=O)N1CCCC2C(C(=O)O)CCCC21)c1c[nH]c2cccc(C3CC3)c12 (stereo not shown) [Compound 190, 1-[3-(4-cyclopropyl-1H-Indol-3-yl)butanoyl]decahydroquinoline-5-carboxylic acid]"
10,6.82 to 7.00,"CC(CC(=O)N1CCCC2CC(C(=O)O)CCC21)c1c[nH]c2cccc(C3CC3)c12 (stereo not shown) [Compound 191, 1-[3-(4-cyclopropyl-1H-Indol-3-yl)butanoyl]decahydroquinoline-6-carboxylic acid]"
11,> 7.00,"CC(CC(=O)N1CCCC2C(C(=O)O)CCCC21)c1c[nH]c2cccc(-c3cccs3)c12 (stereo not shown) [Compound 192, 1-{3-[4-(thiophen-2-yl)-1H-indol-3-yl]butanoyl}decahydroquinoline-5-carboxylic acid]"
12,6.82 to 7.00,"CC(CC(=O)N1CCCC2C(C(=O)O)CCCC21)c1c[nH]c2cccc(Cl)c12 (stereo not shown) [Compound 193, 1-[3-(4-chloro-1H-indol-3-yl)butanoyl]decahydroquinoline-5-carboxylic acid]"
13,< 6.60,"CC(CC(=O)N1CCC(C(=O)O)C2CCCCC21)c1c[nH]c2cccc(C3CC3)c12 (stereo not shown) [Compound 194, 1-[3-(4-cyclopropyl-1H-indol-3-yl)butanoyl]decahydroquinoline-4-carboxylic acid]"
14,< 6.60,"CC(CC(=O)N1CCCC2C(C(=O)O)CCCC21)c1c[nH]c2cccc(C#N)c12 (stereo not shown) [Compound 197, 1-[3-(4-cyano-1H-indol-3-yl)butanoyl]decahydroquinoline-5-carboxylic acid]"
15,> 7.00,"CC(C)Oc1cccc2[nH]cc(C(C)CC(=O)N3CCCC4C(C(=O)O)CCCC43)c12 (stereo not shown) [Compound 201, 1-{3-[4-(propan-2-yloxy)-1H-indol-3-yl]butanoyl}decahydroquinoline-5-carboxylic acid]"
16,< 6.60,"CC(CC(=O)N1CCCC2CCCCC21)c1c[nH]c2cccc(N3CCC(C(=O)O)CC3)c12 (stereo not shown) [Compound 202, 1-{3-[4-(octahydroquinolin-1(2H)-yl)-4-oxobutan-2-yl]-1H-indol-4-yl}piperidine-4-carboxylic acid]"
17,< 6.60,"Cc1ccc2[nH]cc(C(C)CC(=O)N3CCCC4C(C(=O)O)CCCC43)c2c1Cl (stereo not shown) [Compound 203, 1-[3-(4-chloro-5-methyl-1H-indol-3-yl)butanoyl]decahydroquinoline-5-carboxylic acid]"
18,> 7.00,"CC(CC(=O)N1CCCC2C(C(=O)O)CCCC21)c1cn(C)c2cccc(C3CC3)c12 (stereo not shown) [Compound 204, 1-[3-(4-cyclopropyl-1-methyl-1H-indol-3-yl)butanoyl]decahydroquinoline-5-carboxylic acid]"
19,< 6.60,"CC(CC(=O)N1CCCC2C(C(=O)O)CCCC21)c1c[nH]c2nccc(C3CC3)c12 (stereo not shown) [Compound 205, 1-[3-(4-cyclopropyl-1H-pyrrolo[2,3-b]pyridin-3-yl)butanoyl]decahydroquinoline-5-carboxylic acid]"
20,> 7.00,"O=C(O)C1CCCC2C1CCCN2C(=O)CC(c1cccs1)c1c[nH]c2cccc(Cl)c12 (stereo not shown) [Compound 206, 1-[3-(4-chloro-1H-indol-3-yl)-3-(thiophen-2-yl)propanoyl]decahydroquinoline-5-carboxylic acid]"
21,< 6.60,"Cc1cccc2c1c(C(C)CC(=O)N1CCCC3C(C(=O)O)CCCC31)cn2C (stereo not shown) [Compound 207, 1-[3-(1,4-dimethyl-1H-indol-3-yl)butanoyl]decahydroquinoline-5-carboxylic acid]"
